Laboratory results taken from US20110275721A1, “METHOD FOR THE PURIFICATION OF SUBSTITUTED CYCLOPENT-2-EN-1-ONE CONGENERS AND SUBSTITUTED 1,3-CYCLOPENTADIONE CONGENERS FROM A COMPLEX MIXTURE USING COUNTERCURRENT SEPARATION” (Metaproteomics, LLC, priority 2008, published 2011).

Experiment: Shake-flask liquid distribution ratio (Kd), Hexane:Water:Buffer of 10:9:1
Format: physicochemical
Settings: THIAA Aug. 5, 2008
Experimental: Several shake-flask experiments were conducted to test several solvent systems and determine the liquid distribution ratio (Kd) and partition coefficient values for optimal separations. Partition coefficient values derived from shake-flask experiments are a reliable predictor of countercurrent chromatographic behavior. Kd is the concentration of the analyte in the upper phase divided by the concentration of the analyte in the lower phase and, in the alternative, may be listed as Ku/l.
General Procedure and Parameters for Shake Flask Experiments: Addition of 1 mL of the stock buffer at a known pH. Addition of the other necessary solvents to make up the system. Addition of the analyte mixture dissolved in hexane at 400 mg/mL. Final analyte concentration in the shake flask is 0.1 mg/mL. The flask was capped and mixed (by a vortex mixer) for 10 seconds. An aliquot was taken from the upper phase for HPLC analysis, and additionally a separate aliquot was taken from the lower phase for HPLC analysis from each flask. Each component was analyzed by HPLC and integrated using Shimadzu Class VP Software version 7.3 SP1.

SMILES | K Value (pH 4.9) | K Value (pH 5.5) | K Value (pH 5.6) | K Value (pH 6.0)
CCC(C)C(=O)C1=C(O)[C@@](O)(C(=O)CCC(C)C)[C@H](CCC(C)C)C1=O (single isomer, unassigned; (+)) [TH 4] | 55.6 | 16.1 | 11.0 | 5.5
CC(C)CCC(=O)[C@]1(O)C(O)=C(C(=O)C(C)C)C(=O)[C@H]1CCC(C)C [TH 1, (+)-(4R,5S)-3,4-dihydroxy-2-isobutyryl-5-(3-methylbutyl)-4-(4-methylpentanoyl)cyclopent-2-en-1-one] | 16.5 | 4.2 | 3.0 | 1.5
CC(C)CCC(=O)[C@@]1(O)C(O)=C(C(=O)C(C)C)C(=O)[C@H]1CCC(C)C [TH 2, (−)-(4S,5S)-3,4-dihydroxy-2-isobutyryl-5-(3-methylbutyl)-4-(4-methylpentanoyl)cyclopent-2-en-1-one] | 10.8 | 2.5 | 1.8 | 0.9
CCC(C)C(=O)C1=C(O)C(O)(C(=O)CCC(C)C)C(CCC(C)C)C1=O (stereo not drawn) [TH 3, trans tetra ad-isoalpha acid] | 60.3 | 17.8 | 11.4 | 5.5
CC(C)CCC(=O)[C@]1(O)C(O)=C(C(=O)CC(C)C)C(=O)[C@H]1CCC(C)C [TH 5, (+)-(4R,5S)-3,4-dihydroxy-2-(3-methylbutanoyl)-5-(3-methylbutyl)-4-(4-methylpentanoyl)cyclopent-2-en-1-one] | 32.8 | 9.5 | 6.6 | 3.3
